Assay results as given in EPA's ToxRefDB 2.

Key:
rabbit [1] = settings: Sub-acute repeat dose toxicity; Injection; Intravenous; dose end: 5 day; group: systemic; systemic / in life observation / clinical signs / altered breathing rate + systemic / in life observation / clinical signs / labored …
rat [2] = settings: Sub-acute repeat dose toxicity, Injection, Intravenous, dose end: 5 day, group: systemic
rabbit [3] = settings: Prenatal developmental toxicity study, Injection, Intravenous, dose end: 18 GD
mouse [4] = settings: Subchronic oral toxicity in rodents, cd1, Feed, dose end: 13 week, group: systemic
rat [5] = settings: Combined chronic toxicity/carcinogenicity; fischer; Oral; Feed; dose end: 104 week; group: systemic; systemic / pathology microscopic / kidney / hemosiderosis
mouse [6] = settings: Subchronic oral toxicity in rodents, cd1, Feed, dose end: 90 day, group: systemic
rat [7] = settings: Subchronic oral toxicity in rodents, sprague dawley, Feed, dose end: 90 day, group: systemic
dog [8] = settings: Subchronic oral toxicity in nonrodent, beagle, Feed, dose end: 13 week, group: systemic
rat [9] = settings: Subchronic oral toxicity in rodents, fischer, Feed, dose end: 13 week, group: systemic
dog [10] = settings: Chronic toxicity, beagle, Oral, Feed, dose end: 12 month, group: systemic
mouse [11] = settings: Subchronic oral toxicity in rodents, cd1, Feed, dose end: 13 week, group: systemic; remark: listed apart in the source
mouse [12] = settings: Subchronic oral toxicity in rodents, cd1, Water, dose end: 90 day, group: systemic, systemic / hematology / leukocyte (wbc) count differential / leukocyte (wbc)
mouse [13] = settings: Carcinogenicity, b6c3f1, Oral, Feed, dose end: 2 year, group: systemic
rat [14] = settings: Subchronic oral toxicity in rodents, fischer, Feed, dose end: 13 week, group: systemic; remark: listed apart in the source
rat [15] = settings: Carcinogenicity, fischer, Oral, Feed, dose end: 2 year, group: systemic
rat [16] = settings: Multigenerational reproductive toxicity study, wistar, Oral, Feed, dose end: 2 generation
rat [17] = settings: Prenatal developmental toxicity study, fischer, Oral, Gavage/Intubation, dose end: 15 GD
mouse [18] = settings: Subchronic oral toxicity in rodents, b6c3f1, Feed, dose end: 13 week, group: systemic
rat [19] = settings: Subchronic inhalation toxicity, wistar, Whole-Body, dose end: 13 week, group: systemic
rat [20] = settings: Subchronic inhalation toxicity, wistar, Whole-Body, dose end: 13 week, group: systemic, systemic / pathology microscopic / lung / alveolar macrophages + systemic / pathology microscopic / lung / fibrosis + systemic / pathology …
rat [21] = settings: Subchronic inhalation toxicity, wistar, Whole-Body, dose end: 13 week, group: systemic, systemic / pathology microscopic / lung / alveolar macrophages + systemic / in life observation / body weight / body weight
rat [22] = settings: Subchronic inhalation toxicity, wistar, Whole-Body, dose end: 13 week, group: systemic, systemic / clinical chemistry / alanine aminotransferase (alt/sgpt) / alanine aminotransferase (alt/sgpt) + systemic / clinical chemistry / …
[23] = systemic / pathology microscopic / ovary / degeneration + systemic / clinical chemistry / albumin / albumin + systemic / clinical chemistry…
[24] = group: developmental, developmental / developmental malformation / bone / incomplete ossification + systemic / in life observation / body weight / fetal weight
[25] = group: maternal, systemic / in life observation / body weight / body weight + systemic / in life observation / body weight / body weight gain + systemic / in…
[26] = systemic / organ weight / kidney / absolute + systemic / organ weight / kidney / relative to body weight + systemic / pathology microscopic…
[27] = systemic / in life observation / body weight / body weight + systemic / in life observation / body weight / body weight gain + systemic / in…
[28] = systemic / clinical chemistry / potassium / potassium
[29] = systemic / organ weight / thymus / absolute + systemic / organ weight / thymus / relative to body weight + systemic / pathology gross / …
[30] = systemic / clinical chemistry / albumin / albumin
[31] = systemic / pathology gross / gallbladder / [other] + systemic / pathology gross / gallbladder / distended + systemic / pathology microscopic…
[32] = systemic / organ weight / kidney / absolute + systemic / organ weight / liver / absolute + systemic / organ weight / liver / relative to …
[33] = systemic / in life observation / body weight / body weight
[34] = systemic / in life observation / body weight / body weight + systemic / in life observation / food consumption / food consumption
[35] = systemic / in life observation / body weight / body weight + systemic / pathology microscopic / bone marrow / atrophy + systemic / in life …
[36] = systemic / in life observation / food consumption / food consumption
[37] = group: offspring, systemic / pathology gross / mammary gland / discolored + systemic / pathology gross / mammary gland / enlarged
[38] = group: parental, systemic / in life observation / clinical signs / body surface staining + systemic / in life observation / body weight / body weight + …
[39] = group: parental, systemic / organ weight / pituitary gland / absolute + systemic / organ weight / pituitary gland / relative to body weight
[40] = group: reproductive, reproductive / reproductive performance / implantations / implantations
[41] = group: developmental, developmental / developmental malformation / bone / delayed ossification + developmental / developmental malformation / bone / unossified + …
[42] = group: maternal, systemic / in life observation / body weight / body weight gain + systemic / in life observation / clinical signs / urogenital staining
[43] = systemic / pathology microscopic / liver / necrosis
[44] = systemic / pathology microscopic / lung / alveolar macrophages + systemic / pathology microscopic / lung / cholesterol cleft(s) + systemic…

## NC(N)=NC(=O)c1cnn(-c2cccc3ncccc23)c1C1CC1 [Zoniporide]
Rabbit [1]
  LOAEL: > 250 mg/kg/day
  NEL: 50 mg/kg/day
  NOAEL: ≥ 250 mg/kg/day
Rat [2]; systemic / pathology microscopic / blood vessel / inflammation + systemic / pathology microscopic / blood vessel / necrosis
  NEL: < 25 mg/kg/day
Rat [2]; [23]
  LOAEL: > 250 mg/kg/day
  NOAEL: ≥ 250 mg/kg/day
Rabbit [3]; [24]
  LEL: 100 mg/kg/day
  LOAEL: > 100 mg/kg/day
  NOAEL: ≥ 100 mg/kg/day
Rabbit [3]; [25]
  LEL: 100 mg/kg/day
  LOAEL: > 100 mg/kg/day
  NEL: 30 mg/kg/day
  NOAEL: ≥ 100 mg/kg/day

## CCCCOC(=O)[C@@H](C)Oc1ccc(Oc2ccc(C#N)cc2F)cc1 [Cyhalofop-butyl]
Mouse [4]; [26]
  LOAEL: 30 mg/kg/day
  NOAEL: 10 mg/kg/day
Mouse [4]; systemic / organ weight / liver / relative to body weight
  LEL: 3 mg/kg/day
Mouse [4]; systemic / pathology microscopic / liver / inflammation + systemic / pathology microscopic / liver / necrosis + systemic / organ weight / …
  NEL: 1 mg/kg/day
Rat [5]
  LEL: 3.44 mg/kg/day
  LOAEL: 3.44 mg/kg/day
  NEL: 0.823 mg/kg/day
  NOAEL: 0.823 mg/kg/day
Mouse [6]; systemic / organ weight / liver / absolute
  LEL: 3.6 mg/kg/day
Mouse [6]; systemic / organ weight / liver / absolute + systemic / in life observation / clinical signs / alopecia + systemic / organ weight / liver / …
  NEL: 0.4 mg/kg/day
Mouse [6]; systemic / pathology gross / kidney / enlarged + systemic / pathology microscopic / kidney / hypertrophy
  LOAEL: 14.1 mg/kg/day
Mouse [6]; systemic / pathology gross / kidney / enlarged + systemic / pathology microscopic / kidney / hypertrophy + systemic / organ weight / kidney…
  NOAEL: 4.3 mg/kg/day
Rat [7]; [27]
  LOAEL: 800 mg/kg/day
  NOAEL: 400 mg/kg/day
Rat [7]; systemic / organ weight / liver / absolute + systemic / organ weight / liver / relative to body weight + systemic / pathology gross / liver…
  LEL: 25 mg/kg/day
Dog [8]; [28]
  LEL: 3.17 mg/kg/day
  NEL: < 3.17 mg/kg/day
Dog [8]; [29]
  LOAEL: 75.2 mg/kg/day
  NOAEL: 14.7 mg/kg/day
Rat [9]; [30]
  LEL: 1.72 mg/kg/day
  NEL: < 1.72 mg/kg/day
Rat [9]; systemic / clinical chemistry / albumin / albumin + systemic / pathology microscopic / kidney / [other] + systemic / pathology microscopic…
  NOAEL: 60.5 mg/kg/day
Rat [9]; systemic / pathology microscopic / kidney / [other] + systemic / pathology microscopic / kidney / pigmentation + systemic / pathology …
  LOAEL: 190 mg/kg/day
Dog [10]; systemic / in life observation / body weight / body weight + systemic / in life observation / body weight / body weight gain
  LEL: 7.59 mg/kg/day
Dog [10]; systemic / in life observation / body weight / body weight + systemic / in life observation / body weight / body weight gain + systemic / …
  NEL: 1.22 mg/kg/day
Dog [10]; [31]
  LOAEL: > 45.9 mg/kg/day
  NOAEL: ≥ 45.9 mg/kg/day
Mouse [11]; [32]
  LOAEL: > 350 mg/kg/day
  NOAEL: ≥ 350 mg/kg/day
Mouse [11]; systemic / pathology gross / liver / foci
  LEL: 3 mg/kg/day
Mouse [11]; systemic / pathology gross / liver / foci + systemic / clinical chemistry / alkaline phosphatase (alp/alk) / alkaline phosphatase (alp/alk…
  NEL: 1 mg/kg/day

## Oc1ccc(Cl)cc1Cl [2,4-Dichlorophenol]
Mouse [12]
  LEL: 383 mg/kg/day
  LOAEL: > 383 mg/kg/day
  NEL: 114 mg/kg/day
  NOAEL: ≥ 383 mg/kg/day
Mouse [13]; [33]
  LOAEL: 430 mg/kg/day
  NOAEL: < 430 mg/kg/day
Mouse [13]; [34]
  LEL: 430 mg/kg/day
  NEL: < 430 mg/kg/day
Rat [14]; systemic / in life observation / body weight / body weight + systemic / pathology microscopic / bone marrow / atrophy
  LOAEL: 1000 mg/kg/day
Rat [14]; [35]
  NEL: 250 mg/kg/day
  NOAEL: 500 mg/kg/day
Rat [14]; systemic / pathology microscopic / bone marrow / atrophy
  LEL: 500 mg/kg/day
Rat [15]; [36]
  LEL: 120 mg/kg/day
  NEL: < 120 mg/kg/day
Rat [15]; systemic / pathology microscopic / nose / degeneration
  LOAEL: 210 mg/kg/day
Rat [16]; group: offspring, developmental / developmental malformation / eye / open eye + systemic / in life observation / body weight / offspring (pup) weight
  LOAEL: 543 mg/kg/day
Rat [16]; group: offspring, developmental / developmental malformation / eye / open eye + systemic / in life observation / body weight / offspring (pup) weight + …
  NOAEL: 134 mg/kg/day
Rat [16]; [37]
  LEL: 49.1 mg/kg/day
  NEL: < 49.1 mg/kg/day
Rat [16]; [38]
  LOAEL: 543 mg/kg/day
  NOAEL: 134 mg/kg/day
Rat [16]; [39]
  LEL: 33.4 mg/kg/day
  NEL: < 33.4 mg/kg/day
Rat [16]; [40]
  LEL: 768 mg/kg/day
  LOAEL: 768 mg/kg/day
  NEL: 194 mg/kg/day
  NOAEL: 194 mg/kg/day
Rat [17]; [41]
  LEL: 750 mg/kg/day
  LOAEL: > 750 mg/kg/day
  NEL: 375 mg/kg/day
  NOAEL: ≥ 750 mg/kg/day
Rat [17]; [25]
  LOAEL: > 750 mg/kg/day
  NOAEL: ≥ 750 mg/kg/day
Rat [17]; [42]
  LEL: 200 mg/kg/day
  NEL: < 200 mg/kg/day
Mouse [18]; systemic / in life observation / body weight / body weight + systemic / in life observation / clinical signs / fur (altered appearance) + …
  NOAEL: 1500 mg/kg/day
Mouse [18]; systemic / in life observation / body weight / body weight + systemic / pathology microscopic / liver / necrosis + systemic / pathology …
  LOAEL: 3000 mg/kg/day
Mouse [18]; [43]
  LEL: 375 mg/kg/day
  NEL: < 375 mg/kg/day

## O=[Si]=O [Silica]
Rat [19]; [44]
  LOAEL: > 0.03 ppm
  NOAEL: ≥ 0.03 ppm
Rat [19]; systemic / pathology microscopic / lung / proliferation
  LEL: 0.001 ppm
Rat [20]
  LEL: 0.03 ppm
  LOAEL: > 0.03 ppm
  NEL: < 0.03 ppm
  NOAEL: ≥ 0.03 ppm
Rat [21]
  LEL: 0.03 ppm
  LOAEL: > 0.03 ppm
  NEL: < 0.03 ppm
  NOAEL: ≥ 0.03 ppm
Rat [22]
  LEL: 0.06 ppm
  LOAEL: > 0.06 ppm
  NEL: < 0.06 ppm
  NOAEL: ≥ 0.06 ppm
